Measured values as given in patent US10519132B2, “Isocorydine derivatives, preparation method and use thereof” (Lanzhou Institute of Chemical Physics, Chinese Academy of …, priority 2017, dated 2019).
Like-named read-outs stand apart in the source and are kept apart here.

Key:
[1] = system: human liver cancer cell strain HepG2; test: MTT growth inhibition on HepG2; type: cell-based; settings: read-out: IC50 HepG2;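 also: adherent cells in 96-well plates treated with a concentration series for 24, 48 or 72 h, MTT absorbance read at 490 nm, inhibition computed relative to untreated control wells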
Procedure: (§5) By using an MTT method, a sample solution to be tested was added to a 96-well plate in which cancer cells were adherently grown. Culturing was performed for a certain period, and the growth inhibition effect of a compound on a human cancer cell strain for primary screening was measured to determine the anti-cancer activity of the compound.
(§6) Cell culture: A cell incubator was set to conditions of 37° C., 5% CO2, and a saturated humidity, cells were cultured under these conditions, and the cell medium was a DMEM complete medium, wherein 10% fetal bovine serum, 100 IU/mL penicillin, and 100 μg/mL streptomycin were comprised.
(§7) The single cell suspension was diluted to 5×10^3/100 μL after counting, inoculated on a 96-well cell culture plate (triplicate), and adherently cultured overnight;
(§8) After 24 h of adhesion, the complete medium was discarded, 100 μL-sample-solutions to be tested having different concentrations were sequentially added to the 96-well plate according to a concentration gradient, and incubations were continued for 24 h, 48 h, and 72 h;
(§9) The culture liquid was discarded, a 0.5 mg/mL MTT diluted working liquid was added, and incubation was performed for 4 h by placing in an incubator;
(§10) The culture liquid was discarded, 100 μL of DMSO was added, low-speed oscillation was performed for 10 min by placing on a shaker, and the spectrophotometric value of each well was measured at a wavelength of 490 nm by using a microplate reader. Statistical analysis was performed and tumor cell growth inhibition rate was calculated according to the equation: Growth inhibition rate=(OD value of control group−OD value of experimental group)/OD value of control group.
(§11) Culturing was performed for a certain period, the growth inhibition effect of a compound on 3 human cancer cell strains for primary screening was measured to determine the anti-cancer activity of the compound, and a growth inhibition curve was plotted.

[2] = system: human gastric cancer cell strain MGC-803; test: MTT growth inhibition on MGC-803;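 also: adherent cells exposed to compound over a concentration gradient for 24, 48 and 72 h, MTT absorbance at 490 nm, inhibition relative to untreated control wells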
Procedure: as §5, §6, §7, §8, §9, §10, §11

[3] = system: ascites hepatoma H22 induced solid tumor; test: In vivo tumor growth inhibition in mice bearing H22; set-up: species or system white Kunming mice; settings: Table 6; low COM33 dosage group (50 mg/Kg), intraperitoneal injection
[4] = system: C-Myc, Ki-67, CylinD1, β-Catenin protein; test: Western blotting, protein expression in HepG2 cells; type: cell-based, human; settings: sorafenib 4 μg/mL; for expressions of C-Myc, Ki-67, CylinD1 and β-Catenin protein compared to the blank control group: high COM33 dosage 10.0 μg/mL, combination 4 μg/mL sorafenib+5.0 μg/mL COM33
Procedure: (§1) Method: Gel electrophoresis of protein samples. Gel formulation: All components were added to a small beaker according to a formulation of a separation gel, uniformly mixed with slightly shaking to prevent the generation of bubbles, quickly applied to a seam of a glass plate with a 1 mL pipette, and then blocked with double distilled water to prevent oxidation. After 30 min, the separation gel solidified, the double distilled water thereof was poured off, waster was suctioned with a filter paper, a 5% concentration gel was formulated, TEMED was finally loaded onto the glass plate, and a 1.0 mm comb was inserted into the concentration gel and placed at room temperature for 30 min. The comb was slightly, vertically, and carefully pulled up, various groups of 20 μL protein samples were pipetted with a microsyringe, an equal volume of a loading buffer and an equal volume of a loading buffer containing 3 μL of Marker were separately added to a loading well, an electrophoresis instrument was switched on after electrodes were plugged, gels were run at 75V for 30 min, and the voltage was changed to 120V and gels were run for 2 h when bromophenol blue reaches the separation gel. Membrane transfer: A PVDF membrane having a suitable size was cut according to the size of the gel, placed in a methanol solution for 1 min, lifted, and placed and soaked together with a well cut filter paper in a previously precooled membrane transfer buffer. A sponge pad, three layers of filter paper, a gel, three layers of filter paper, and a sponge pad, in this order from top to bottom, were placed in a membrane transfer tank, and a precooled membrane transfer buffer was then added. Several ice bags were placed circumferentially to prevent an excessively hot external environment, and electrodes were plugged and membrane transfer was performed at a constant current of […] for 2.5 hours. Blocking and incubation of antibodies: A transferred membrane was cut into desired bands, which were placed in a blocking solution of 5% skim milk powder, placed on a shaker, and shaken at room temperature at a low speed for 1 h. A primary antibody was diluted with the blocking solution, a corresponding antibody was pipetted and added to a zip lock bag, the PVDF membrane was then placed in the antibody dilution, bubbles in the zip lock bag were evacuated, and the zip lock bag was sealed and placed in a refrigerator at 4° C. overnight. The membrane was withdrawn from the zip lock bag on the second day, and placed in a clean dish. A TBST solution was added and washed 3 times on a low-speed shaker, 10 min for each time. […]

[5] = system: ascites hepatoma H22 induced solid tumor; test: In vivo tumor growth inhibition in mice bearing H22; set-up: species or system white Kunming mice
Text: 1. Tumor strain and animal for experiments: H22 liver cancer cell strain was provided by Teaching and Research Office, School of Basic Medical Sciences, Lanzhou University/Key Lab of Preclinical Study for New Drugs of Gansu Province, and was passage and preserved by periodically intraperitoneal inoculation. White Kunming mice (18.0-22.0 g) were provided by Lanzhou Veterinary Institute, Chinese Academy of Agriculture.
(§2) 2. Establishment of tumor models and method of grouping: a third passage of mice which were well grown 7 d after intraperitoneal inoculation of H22 tumor cells were sacrificed by cervical dislocation, and placed and soaked in 75% alcohol for 10 min. After 3 mL of sterile physiological saline was intraperitoneally injected, milky tumor cell ascites was withdrawn from the abdominal cavity, and formulated into a tumor cell suspension with sterile physiological saline, with a cell number of 1.5×10^7 mL^−1. 80 white Kunming mice were taken, and 0.2 mL of the tumor cell suspension was subcutaneously inoculated to the left axilla of each mouse. 24 h after the inoculation of tumor cells, the mice were divided into 8 groups according to body weights, 10 mice for each group. […] All of the administration manners were intraperitoneal administration.
(§3) 3. Result of experiments: On the second day of modeling, continuous administration was performed for 10 d. Administration was stopped on the 11th d, and mice were sacrificed by cervical dislocation on the next day.
Test method: For the test method, see Example 24. Results can be seen in FIG. 15, FIG. 16, and Table 5.
(§4) Method: Modeling was performed by using the method of establishing H22 white mice tumor-bearing model of Example 24. The in vivo tumor growth inhibition activity of COM33 on H22 model mice was measured in an intraperitoneal injection administration manner.

[6] = system: human cervical cancer Hela cell strains; test: MTT growth inhibition on Hela;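 also: compound exposure of 24, 48 or 72 h in DMEM with 10% fetal bovine serum, MTT absorbance read at 490 nm, inhibition calculated relative to control group OD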
Procedure: as §5, §6, §7, §8, §9, §10, §11

Vimentin = test: Western blotting, Vimentin expression in HepG2 cells; type: cell-based, human
Procedure: as §1

various HCC = settings: background; read-out: IC50 values, inhibition of tumor growth of various HCC; cited from earlier work
[7] = background; cited from earlier work
HepG2 cells [8] = test: Apoptosis induction by laser confocal scanning microscope; type: cell-based, human; settings: HepG2, 48 h
Procedure: Two solutions (a former one and a later one) were mixed, centrifugation was performed at 1000 r/min for 5 min, the supernatant was discarded, and washing was performed for 3 times with PBS. The cell precipitate was resuspended in Binding Buffer, 10 μL of a FITC-Annen V staining liquid was added, homogenized by pipetting slightly, and reaction was performed under protection from light. PI was added for staining for 15 min, centrifugation was performed, the supernatant was discarded, and washing was performed for 3 times again with PBS. A glass slide was loaded by applying the cell precipitate thereto and mounted with non-fluorescent buffering glycerol, a laser confocal scanning microscope was immediately used for observation and taking photographs at wavelengths of 488 nm and 560 nm. Meanwhile, cells without AnneixnV-FITC and PI added were used as a negative control.

[9] = system: hepatocellular carcinoma in late stages; settings: background; cited from earlier work
[10] = set-up: species or system white Kunming mice; settings: mouse, in vivo
Procedure: as §2, §3, §4

HepG2 cells [11] = test: Apoptosis induction, Annexin V and PI double-staining, flow cytometry; type: cell-based, human; settings: HepG2, 24 h; sorafenib 4 μg/mL; combination 4 μg/mL sorafenib+5 μg/mL FICD
Procedure: Different concentrations of FICD were added on the second day, culture was continued for 24 h, cells were collected and washed 3 times with precooled PBS, and adherent cells were digested with trypsin free of EDTA. The solutions were combined, centrifuged, and washed 3 times again with precooled PBS. 400 μL of solution containing 5 μL of V-FITC and 10 μL of PI was added, incubation was performed at room temperature under protection from light, and detection was performed by flowcytometry after 30 min.

HepG2 cells [12] = test: Cell cycle distribution by flow cytometry; type: cell-based, human; settings: sorafenib 5 μg/mL, FICD 10 μg/mL, combination 5 μg/mL FICD+10 μg/mL sorafenib
Procedure: 1 mL of 70% precooled (−20° C.) ethanol was added to the cell precipitate, homogenized by pipetting, and fixed at 4° C. overnight. On the second day, HepG2 cells was collected by centrifugation, 2 mL of precooled PBS was added for washing 3 times, 500 μL of PBS containing 50 μg/mL […] (PI) and 100 μg/mL RNaseA was added, and incubation was performed at 4° C. under protection from light for 30 min. Detection was performed on a flow cytometer, and results can be seen in FIG. 9 and FIG. 10.

[13] = Homo sapiens, HepG2, Table 2, MTT
[14] = COM33 experiment (FIG. 17), combination compared to the sorafenib group

In the case of `COc1cc(NC(=O)Nc2ccc(N3CCC(CN)CC3)c(C(F)(F)F)c2)c2c(c1O)-c1c(OC)c(OC)cc3c1[C@H](C2)N(C)CC3` [Compound 17], the IC50 ([1]; Homo sapiens, HepG2, Table 1, MTT) is reported as < 10 µM, the IC50 [1, 13] is reported as 7.51 µM and the IC50 ([2]; Homo sapiens, MGC-803, read-out: IC50 MGC-803, Table 1, MTT) is reported as < 10 µM. For the same compound, the IC50 ([2]; Homo sapiens, MGC-803, read-out: IC50 MGC-803, Table 2, MTT) was 11.1 µM, the “Tumor inhibition rate (%)” value [3] was 27.2% and the “expressions of C-Myc, Ki-67, CylinD1 and β-Catenin protein compared to the blank control group” value [4] was “significantly reduced”. For the same compound, the “Tumor inhibition rate (%)” value ([5]; Table 6, high COM33 dosage group (100 g/Kg), intraperitoneal injection) was 73.8%, the IC50 ([6]; Homo sapiens, HeLa, read-out: IC50 HeLa, Table 1, MTT) was < 10 µM and the IC50 ([6]; Homo sapiens, HeLa, read-out: IC50 Hela, Table 2, MTT) was 6.32 µM. The Vimentin expression (Vimentin; [14]) was “expressed in all groups”.
For `COc1ccc2c(c1O)-c1c(OC)c(OC)cc3c1[C@H](C2)N(C)CC3` [ICD, isocorydine], the IC50 [1, 13] is listed as 569 µM, the IC50 ([2]; Homo sapiens, MGC-803, read-out: IC50 MGC-803) is listed as 388 µM and the IC50 (various HCC) is listed as > 200 µM. It also gave an IC50 ([6]; Homo sapiens, HeLa, read-out: IC50 HeLa) of 581 µM.
In the case of `COc1cc(N)c2c(c1O)-c1c(OC)c(OC)cc3c1[C@H](C2)N(C)CC3` [NICD, 8-amino-isocorydine, reference compound], the IC50 ([1]; Table 2, MTT) is given as 51.1 µM, the IC50 ([2]; read-out: IC50 MGC-803, Table 2, MTT) is given as 62.1 µM and the “stability on storage in an aqueous solution” value [7] is given as “cannot be stored in an aqueous solution for a long period”. For the same compound, the IC50 ([6]; read-out: IC50 Hela, Table 2, MTT) was 44.1 µM.
For `CNC(=O)c1cc(Oc2ccc(NC(=O)Nc3ccc(Cl)c(C(F)(F)F)c3)cc2)ccn1` [Sorafenib, reference compound], the “apoptosis and cell morphology, Anneixn V-FITC and PI double-staining” value (HepG2 cells [8]) was “apoptoses occurred during various phases”, the “expressions of C-Myc, Ki-67, CylinD1 and β-Catenin protein compared to the blank control group” value [4] was “significantly reduced” and the “expressions of C-Myc, Ki-67, CylinD1 and β-Catenin protein compared to the blank group” value ([4]; high FICD dosage 20 μg/mL, combination 4 μg/mL sorafenib+10 μg/mL FICD) was “significantly reduced”. The “elongation of overall survival time of an HCC patient” value [9] was 2 months, the “Tumor inhibition rate (%)” value ([5]; Table 4, sorafenib 50 mg/Kg, intraperitoneal, 10 d) was 55.8% and the “Tumor inhibition rate (%)” value ([5]; Table 6, sorafenib 50 mg/Kg, intraperitoneal injection) was 56.5%. The “toxic and side effects on increased dosage” value [10] was “toxic and side effects of sorafenib would obviously occur, resulting in death of experimental animals”, the Vimentin expression (Vimentin; [14]) was “expressed in all groups” and the Vimentin expression (Vimentin; FICD experiment (FIG. 12)) was “significantly increased”. For the same compound, the apoptosis rate (HepG2 cells [11]) was 29.33% and the “cell cycle distribution compared to the blank control group” value (HepG2 cells [12]) was “cells significantly increased in the G0/G1 phase of the cell cycle and significantly decreased in the S phase”.
